Measured values reported in patent publication US20130039928A1, “COMPOSITIONS AND METHODS FOR REVERSING CORTICOSTEROID RESISTANCE OR TREATING RESPIRATORY INFECTIONS” (priority 2010, published 2013).

What was measured:
Pseudomonas aeruginosa = experiment: Clearance of bacteria in vitro by alveolar macrophages (PA); format: cell-based
Procedure: (§1) Human alveolar macrophages were purified from individual BAL samples by centrifugation and seeded onto 6-well tissue culture plates. After incubation for 2 h, non-adherent cells were removed and the adherent cells were incubated with R, S-sulforaphane (5 μM; LKT Laboratories, Inc., St. Paul, Minn.) and or DMSO in RPMI 1640 culture medium with 10% FBS and 1% penicillin-streptomycin (Invitrogen, Carlsbad, Calif.). After 16-20 h, adherent cells were scraped, suspended in RPMI 1640 culture media and plated onto 96-well tissue culture plates for bacterial phagocytosis and clearance assays. […] For MARCO antibody-depletion, alveolar macrophages were incubated with human anti-MARCO antibody (1 μg/ml; (Hycult, Uden, The Netherlands) for 4 hours prior to bacterial challenge.
Sputum isolates of nontypeable H. influenzae and P. aeruginosa obtained from patients with COPD at the Department of Veterans Affairs, Western New York Healthcare System were used (S. Sethi, N. Evans, B. J. Grant, T. F. Murphy, N Engl J Med 347, 465 (Aug. 15, 2002); C. S. Berenson, M. A. Garlipp, L. J. Grove, J. Maloney, S. Sethi, J Infect Dis 194, 1375 (Nov. 15, 2006); T. F. Murphy et al., Am J Respir Crit Care Med 177, 853 (Apr. 15, 2008); T. F. Murphy, A. L. Brauer, A. T. Schiffmacher, S. Sethi, Am J Respir Crit Care Med 170, 266 (Aug. 1, 2004)). For bacterial growth, H. influenzae was cultured on chocolate agar or grown in brain heart infusion broth supplemented with 20 μg/mlNAD and 10 μg/ml hemin at 35° C. in 5% CO2. P. aeruginosa was cultured on LB agar plates or in LB broth at 37° C. For FITC-labeling of bacteria, heat inactivated PA and NTHI (10^9 CFU/ml) were resuspended in 1 ml of labeling buffer (0.1 M NaHCO3, pH 9.2) and incubated with fluorescein isothiocyanate (FITC) (Sigma) under constant stiffing in the dark at room temperature for 1 h. Finally, bacteria were washed three times with PBS and dialyzed overnight against PBS. FITC-labeled bacteria were resuspended with PBS at a concentration of 10^9/ml.
After treatment, macrophages (10^5 cells) were incubated with bacteria (PA or NTHI) for 4 h. Subsequently, 100 μL of cell free culture medium was aseptically plated and cultured on tryptose blood and or chocolate agar plates at 37° C. The number of bacterial colonies was counted after 24 h.

[1] = tested on: nontypeable Haemophilus influenzae
Procedure: as §1, with “challenge. […]” for “challenge.”
After treatment, macrophages (10^5 cells) were incubated with bacteria (PA or NTHI) for 4 h. […] The number of bacterial colonies was counted after 24 h.

[2] = tested on: nontypeable Haemophilus influenza (NTHI); conditions: wild-type mice after 6 months of chronic exposure to cigarette smoke
Procedure: C57BL/6J mice were housed under controlled conditions for temperature and humidity, using a 12-hour light/dark cycle. At 8 weeks of age, mice were exposed to CS for (2.5 h/day for 5 days/week) for 1 week or 6 months using a machine that produces cigarette smoke (TE-10, Teague Enterprises) and reference cigarettes (2R4F) with a total suspended particle concentration of 250 mg/m^3 as previously described (T. E. Sussan et al., Proc Natl Acad Sci USA, (Dec. 22, 2008)). Following exposure to CS, mice were inoculated with PA or NTHI at a dose of 10^3 CFU in 50 μl of PBS intranasally. For sulforaphane administration (0.5 mg/mouse of R, S-sulforaphane in PBS), a nebulizer (Aerogen, Inc., Galway, Ireland) designed specifically for small animals was used.
BAL fluid analysis and cell counts with differential staining were carried out as described previously (T. Rangasamy et al., J Clin Invest 114, 1248 (November, 2004)). For analyzing bacterial colonization in lungs, 100 μl of BAL fluid were diluted serially in sterile 0.9% NaCl and aseptically plated and cultured on appropriate (blood [PA] or chocolate [NTHI]) agar plates. After 24 h, the number of CFU was counted.

IL-8 promoter = experiment: ChIP of IL-8 promoter (histone acetylation, HDAC2 binding) in alveolar macrophages; format: cell-based, human
Procedure: For inducing corticosteroid resistance, PMs were exposed to cigarette smoke condensate (CSC, 100 μg/ml; Murty Pharmaceuticals, Lexington, Ky.) for 16 h. Exposure to S-nitrosoglutathione (GSNO, 10 μM) was limited to 4 h. […] For assessing corticosteroid responsiveness, macrophages were incubated with dexamethasone (1 μM, Sigma) for 1 h followed by LPS (100 ng/ml, Sigma) for additional 4 h.
Chromatin immunoprecipitation was performed as described previously (Hogg, J. C. & Timens, W., Annu Rev Pathol (2008)). Briefly, cells were fixed in ˜1% formaldehyde in cell growth media for 10 minutes followed by glycine fixation. Cells were then sonicated in ChIP-lysis buffer containing a protease inhibitor cocktail after incubation on ice for 30 minutes. […] sonication, the samples were spun at maximum speed for 12 minutes in a cold microcentrifuge. The supernatants were then addressed as input samples. A part of the input sample was precleared by using a 50% slurry of protein A/G beads prepared in immunoprecipitation (IP) buffer for 2 hours in the cold, following which the beads were centrifuged out and the supernatant was used for IP. Then the precleared samples were incubated with 2 μg of panacetylated histone H4 antibody (ChIP assay kit; Upstate Biotechnology) or anti-HDAC2 antibody from Santa Cruz Biotechnology. As a control, anti-rabbit IgG antibody was added for 1 hour in the cold. The protein A/G bead slurry was added to each reaction and was rotated overnight. The next day, the beads were washed extensively, and the DNA was reverse crosslinked, eluted in elution buffer, and stored at −80° C. until used for sequencing or PCR validation assays. […] This immunoprecipitated DNA was used for PCR amplification by using the specific gene (IL-8 for humans and MCP-1 for mice) promoter PCR assays. PCR primers were used for the IL-8 promoter (forward: 5′-[…]-3′ and reverse: 5′-[…]-3′) and the MCP-1 promoter (forward: 5′-[…]-3′ and reverse: 5′-[…]-3′).

[3] = COPD alveolar macrophages, compared to vehicle, 4 h with bacteria
[4] = cell-free medium with sulforaphane alone

SMILES: C[S+]([O-])CCCCN=C=S (stereo not shown) [sulforaphane]
- clearance of Pseudomonas aeruginosa (decrease in CFU in culture medium) (Pseudomonas aeruginosa; [3]): 40-95%
- bacterial clearance (Pseudomonas aeruginosa; alveolar macrophages from non-COPD subjects): significantly enhanced bacterial clearance
- bactericidal activity towards Pseudomonas aeruginosa (Pseudomonas aeruginosa; [4]): no bactericidal activity
- clearance of nontypeable Haemophilus influenzae (decrease in CFU in culture medium) [1, 3]: 40-95%
- bactericidal activity towards nontypeable Haemophilus influenzae [1, 4]: no bactericidal activity
- bacterial colonization (NTHI) in the lungs [2]: inhibited bacterial colonization
- HDAC2 binding in the IL-8 promoter (IL-8 promoter; COPD alveolar macrophages): significantly increased the levels of HDAC2 binding
- HDAC2 binding in the IL-8 promoter (IL-8 promoter; in the presence of buthionine sulfoximine): failed to increase HDAC2 binding
- histone acetylation on the IL-8 promoter (IL-8 promoter; sulforaphane treatment with DEX): concomitant reduction
- histone acetylation in IL-8 promoter (IL-8 promoter; sulforaphane, baseline and after LPS): decrease in histone acetylation
